Data as given in ChEMBL document CHEMBL1159053, “Synthesis and antifungal activities in vitro of novel pyrazino [2,1-a] isoquinolin derivatives” (2010).
≈ marks a conversion by molar mass, not a printed value.

Tests used:
Type in all cases: functional
Candida albicans = test: Antifungal activity against Candida albicans by serial dilution method
Cryptococcus neoformans = test: Antifungal activity against Cryptococcus neoformans by serial dilution method
Nannizzia gypsea = test: Antifungal activity against Microsporum gypseum by serial dilution method
Aspergillus fumigatus = test: Antifungal activity against Aspergillus fumigatus by serial dilution method
Trichophyton rubrum = test: Antifungal activity against Trichophyton rubrum by serial dilution method

Structure (SMILES)	MIC80 (Candida albicans) [µg/mL]	MIC80 (Cryptococcus neoformans) [µg/mL]	MIC80 (Nannizzia gypsea) [µg/mL]	MIC80 (Aspergillus fumigatus) [µg/mL]	MIC80 (Trichophyton rubrum) [µg/mL]
CCCCCCCCCCN1CCc2cc(O)c(O)cc2C1	64 (≈ 210 µM)	16 (≈ 52.4 µM)	16 (≈ 52.4 µM)	64 (≈ 210 µM)	32 (≈ 105 µM)
CCCCN1CCN2CCc3ccc(F)cc3C2C1 (stereo not given)	64 (≈ 244 µM)	> 64	4 (≈ 15.2 µM)	> 64	> 64
CCCCCCCCN1CC(=O)N2CCc3ccc(F)cc3C2C1 (stereo not given)	> 64	16 (≈ 48.1 µM)	16 (≈ 48.1 µM)	32 (≈ 96.3 µM)	16 (≈ 48.1 µM)
CCCCN1CC(=O)N2CCc3cc(OC)c(OC)cc3C2C1 (stereo not given)	> 64	16 (≈ 50.2 µM)	> 64	> 64	> 64
CCCCN1CC(=O)N2CCc3ccc(F)cc3C2C1 (stereo not given)	> 64	32 (≈ 116 µM)	> 64	> 64	64 (≈ 232 µM)
CCCCCCCCN1CCN2CCc3cc(O)c(O)cc3C2C1 (stereo not given)	16 (≈ 48.1 µM)	2 (≈ 6.02 µM)	32 (≈ 96.2 µM)	64 (≈ 192 µM)	16 (≈ 48.1 µM)
CCCCCCCCCN1CC(=O)N2CCc3cc(OC)c(OC)cc3C2C1 (stereo not given)	64 (≈ 165 µM)	4 (≈ 10.3 µM)	2 (≈ 5.15 µM)	32 (≈ 82.4 µM)	32 (≈ 82.4 µM)
CCCCCCCCN1CCN2CCc3cc(OC)c(OC)cc3C2C1 (stereo not given)	32 (≈ 88.8 µM)	8 (≈ 22.2 µM)	4 (≈ 11.1 µM)	8 (≈ 22.2 µM)	16 (≈ 44.4 µM)
CCCCCCCCN1CCN2CCc3ccc(F)cc3C2C1 (stereo not given)	16 (≈ 50.2 µM)	4 (≈ 12.6 µM)	4 (≈ 12.6 µM)	32 (≈ 100 µM)	8 (≈ 25.1 µM)
CCCCCCCCCN1CCN2CCc3cc(O)c(O)cc3C2C1 (stereo not given)	8 (≈ 23.1 µM)	4 (≈ 11.5 µM)	8 (≈ 23.1 µM)	64 (≈ 185 µM)	8 (≈ 23.1 µM)
CCCCCCCCCCCCN1CC(=O)N2CCc3cc(OC)c(OC)cc3C2C1 (stereo not given)	> 64	32 (≈ 74.3 µM)	64 (≈ 149 µM)	> 64	> 64
CCCCN1CCN2CCc3cc(O)c(O)cc3C2C1 (stereo not given)	> 64	4 (≈ 14.5 µM)	> 64	> 64	> 64
CCCCCCCCN1CC(=O)N2CCc3cc(OC)c(OC)cc3C2C1 (stereo not given)	16 (≈ 42.7 µM)	8 (≈ 21.4 µM)	8 (≈ 21.4 µM)	64 (≈ 171 µM)	32 (≈ 85.4 µM)
CCCCCCCCCN1CC(=O)N2CCc3ccc(F)cc3C2C1 (stereo not given)	32 (≈ 92.4 µM)	2 (≈ 5.77 µM)	0.5 (≈ 1.44 µM)	16 (≈ 46.2 µM)	4 (≈ 11.5 µM)
CCCCCCCCCN1CCN2CCc3cc(OC)c(OC)cc3C2C1 (stereo not given)	32 (≈ 85.4 µM)	4 (≈ 10.7 µM)	2 (≈ 5.34 µM)	8 (≈ 21.4 µM)	8 (≈ 21.4 µM)
CCCCCCCCCN1CCN2CCc3ccc(F)cc3C2C1 (stereo not given)	8 (≈ 24.1 µM)	4 (≈ 12 µM)	2 (≈ 6.01 µM)	16 (≈ 48.1 µM)	8 (≈ 24.1 µM)
CCCCCCCCCCCCN1CCN2CCc3cc(OC)c(OC)cc3C2C1 (stereo not given)	> 64	16 (≈ 38.4 µM)	32 (≈ 76.8 µM)	> 64	> 64
CCCCCCCCCCCCN1CCN2CCc3ccc(F)cc3C2C1 (stereo not given)	> 64	64 (≈ 171 µM)	4 (≈ 10.7 µM)	> 64	64 (≈ 171 µM)
CCCCCCCCCCCCN1CC(=O)N2CCc3ccc(F)cc3C2C1 (stereo not given)	> 64	> 64	64 (≈ 165 µM)	32 (≈ 82.4 µM)	64 (≈ 165 µM)
CCCCCCCCCCCCN1CCN2CCc3cc(O)c(O)cc3C2C1 (stereo not given)	64 (≈ 165 µM)	16 (≈ 41.2 µM)	16 (≈ 41.2 µM)	64 (≈ 165 µM)	16 (≈ 41.2 µM)
CCCCN1CCN2CCc3cc(OC)c(OC)cc3C2C1 (stereo not given)	> 64	> 64	> 64	> 64	> 64
OC(Cn1cncn1)(Cn1cncn1)c1ccc(F)cc1F [FLUCONAZOLE]	2 (≈ 6.53 µM)	4 (≈ 13.1 µM)	2 (≈ 6.53 µM)	> 64	32 (≈ 104 µM)
